Measurements from PMC6009955, “Synthesis of new pyridothienopyrimidinone and pyridothienotriazolopyrimidine derivatives as pim-1 inhibitors” (Journal of Enzyme Inhibition and Medicinal Chemistry, 2017).
Like-named read-outs stand apart in the source and are kept apart here.

Legend:
[1] = biological target: T1, Human proto-oncogene serine/threonine-protein kinase pim-1 (PIM1) (Homo sapiens, UniProt P11309); assay: Pim-1 kinase inhibitory activity (PIM1 ELISA kit); format: biochemical; conditions: for inhibition at 25 µM: read-out: % Inhibition at 25µM; for IC50: tested at 0.2, 1, 5 and 25 µM
T1 construct: purchased MBS7573
Description: The kinase inhibitory activity of the synthesised compounds was determined using Human proto-oncogene serine/threonine-protein kinase pim-1 (PIM1) ELISA Kit (catalog #MBS7573). All the compounds were tested for their inhibitory activity against pim-1 kinase at 0.2, 1, 5 and 25 µM using Staurosporine as a reference standard.

[2] = tested on: human breast adenocarcinoma (MCF7); assay: In vitro cytotoxic activity, MTT method, MCF7; format: cell-based; conditions: MCF-7, MTT, 48 h incubation, means of three experiments
Description: Cell line cells were obtained from American Type Culture Collection (ATCC, Manassas, VA). The cell lines used in this study were human breast adenocarcinoma (MCF7) and human colon adenocarcinoma (HCT116). The cells were cultured using DMEM (Invitrogen/Life Technologies) supplemented with 10% FBS (Hyclone), 10 µg/mL insulin (Sigma) and 1% penicillin-streptomycin. All of the other chemicals and reagents were from Sigma or Invitrogen. […] The culture medium was removed to a centrifuge tube. The cell layer was rinsed with 0.25% (w/v) Trypsin 0.53 mM EDTA solution to remove all traces of serum which contains Trypsin inhibitor. Then, 2–3 ml of Trypsin EDTA solution was added and the cells were observed under an inverted microscope until the cell layer is dispersed (usually within 5–15 min.). A volume of 6 to 8 ml of complete growth medium was added and the cells were aspirated by gently pipetting. The cell suspension was transferred to the centrifuge tube with the culture medium and centrifuged at approximately 125 ×g for 5 to 10 min. The supernatant was discarded and the cells were suspended in fresh growth medium then incubated at 37 °C for 24 h. After treatment of the cells with the serial concentrations of the test compounds or the control Staurosporine in DMSO (at concentrations of 200, 100, 10, 1 and 0.1 µM), incubation was carried out for 48 h at 37 °C, then the plates were examined under the inverted microscope and proceeded for the MTT assay. The MTT method of monitoring in vitro cytotoxicity is well suited for use with multiwell plates. For best results, cells in the log phase of growth should be employed and final cell number should not exceed 10^6 cells/cm^2. Each test should include a blank containing complete medium without cells. Cell cultures were removed from the incubator into laminar flow hood. Each vial of MTT [M-5655] was reconstituted to be used with 3 ml of medium or balanced salt solution without phenol red and serum and the reconstituted MTT was added in an amount equal to 10% of the culture medium volume. Then the cultures were returned to the incubator for 2–4 h depending on the cell type and the maximum cell density. After the incubation period, the cultures were removed from incubator and the resulting formazan crystals were dissolved by adding an amount of MTT solvent (solubilisation solution) [M-8910] equal to the original culture medium volume. Gentle mixing in a gyratory shaker enhanced dissolution. Occasionally pipetting up and down [trituration] may be required to completely dissolve the MTT formazan crystals. The absorbance was measured at a wavelength of 450 nm using Bioline ELIZA reader. The background absorbance of the multiwell plates was measured at 690 nm and subtracted from the 450 nm measurement. The results are shown in Table 2 and graphically represented in Figure 5. […] The results in terms of IC50 in µM are given in Table 2 and represented graphically in Figure 5.

[3] = tested on: human colon adenocarcinoma (HCT116); assay: In vitro cytotoxic activity, MTT method, HCT116; format: cell-based; conditions: 48 h incubation, means of three experiments
Description: Cell line cells were obtained from American Type Culture Collection (ATCC, Manassas, VA). The cell lines used in this study were human breast adenocarcinoma (MCF7) and human colon adenocarcinoma (HCT116). The cells were cultured using DMEM (Invitrogen/Life Technologies) supplemented with 10% FBS (Hyclone), 10 µg/mL insulin (Sigma) and 1% penicillin-streptomycin. All of the other chemicals and reagents were from Sigma or Invitrogen. […] The culture medium was removed to a centrifuge tube. The cell layer was rinsed with 0.25% (w/v) Trypsin 0.53 mM EDTA solution to remove all traces of serum which contains Trypsin inhibitor. Then, 2–3 ml of Trypsin EDTA solution was added and the cells were observed under an inverted microscope until the cell layer is dispersed (usually within 5–15 min.). A volume of 6 to 8 ml of complete growth medium was added and the cells were aspirated by gently pipetting. The cell suspension was transferred to the centrifuge tube with the culture medium and centrifuged at approximately 125 ×g for 5 to 10 min. The supernatant was discarded and the cells were suspended in fresh growth medium then incubated at 37 °C for 24 h. After treatment of the cells with the serial concentrations of the test compounds or the control Staurosporine in DMSO (at concentrations of 200, 100, 10, 1 and 0.1 µM), incubation was carried out for 48 h at 37 °C, then the plates were examined under the inverted microscope and proceeded for the MTT assay. The MTT method of monitoring in vitro cytotoxicity is well suited for use with multiwell plates. For best results, cells in the log phase of growth should be employed and final cell number should not exceed 10^6 cells/cm^2. Each test should include a blank containing complete medium without cells. Cell cultures were removed from the incubator into laminar flow hood. Each vial of MTT [M-5655] was reconstituted to be used with 3 ml of medium or balanced salt solution without phenol red and serum and the reconstituted MTT was added in an amount equal to 10% of the culture medium volume. Then the cultures were returned to the incubator for 2–4 h depending on the cell type and the maximum cell density. After the incubation period, the cultures were removed from incubator and the resulting formazan crystals were dissolved by adding an amount of MTT solvent (solubilisation solution) [M-8910] equal to the original culture medium volume. Gentle mixing in a gyratory shaker enhanced dissolution. Occasionally pipetting up and down [trituration] may be required to completely dissolve the MTT formazan crystals. The absorbance was measured at a wavelength of 450 nm using Bioline ELIZA reader. The background absorbance of the multiwell plates was measured at 690 nm and subtracted from the 450 nm measurement. […]

pim-1 = conditions: cited from earlier work
pim-2 = conditions: cited from earlier work
[4] = previous work, 2-aryl-2,3-dihydro derivatives ref 9, read-out: IC50 pim-1 inhibition

T1 sequence (P11309 whole entry): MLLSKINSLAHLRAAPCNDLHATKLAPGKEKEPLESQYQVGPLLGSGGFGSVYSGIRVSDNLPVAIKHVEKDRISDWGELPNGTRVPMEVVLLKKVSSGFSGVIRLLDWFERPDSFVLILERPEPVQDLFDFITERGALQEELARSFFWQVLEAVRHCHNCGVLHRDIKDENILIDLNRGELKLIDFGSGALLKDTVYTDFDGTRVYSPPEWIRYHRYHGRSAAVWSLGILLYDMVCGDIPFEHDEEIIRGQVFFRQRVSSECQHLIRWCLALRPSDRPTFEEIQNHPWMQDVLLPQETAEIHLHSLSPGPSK

Cc1nc2sc3c(=N)n(N=Cc4ccccc4C(F)(F)F)cnc3c2c(C)c1Br [Compound 9b, 8-Bromo-4-imino-7,9-dimethyl-N-(2-(trifluoromethyl)benzylidene)pyrido[3′,2′:4,5]thieno[3,2-d]pyrimidin-3(4H)-amine]
melting point: > 300 °C | inhibition at 25 µM ([1]; pim-1 kinase, 25 µM): 89% | IC50 ([1]; pim-1 kinase): 220 nM

CCOC(=O)Cc1nc2c3sc4nc(C)c(Br)c(C)c4c3ncn2n1 [Compound 8, ethyl 2-(8-bromo-7,9-dimethylpyrido[3′,2′:4,5]thieno[2,3-e][1,2,4]triazolo[1,5-c]pyrimidin-2-yl)acetate]
melting point: 198 to 199 °C | inhibition at 25 µM ([1]; pim-1 kinase, 25 µM): 95% | IC50 ([1]; pim-1 kinase): 100 nM | IC50 ([2]; Homo sapiens, MCF7, 48 h): < 500 nM | IC50 [2]: 410 ± 30 nM

Cc1nc2sc3c(c2c(C)c1Br)NC(c1ccsc1)NC3=O (centres unmarked) [Compound 3j, 8-Bromo-7,9-dimethyl-2-(thiophen-3-yl)-2,3-dihydropyrido[3′,2′:4,5]thieno[3,2-d]pyrimidin-4(1H)-one]
melting point: 280 to 281 °C | inhibition at 25 µM ([1]; pim-1 kinase, 25 µM): 95% | IC50 ([1]; pim-1 kinase): 100 nM | IC50 ([3]; Homo sapiens, HCT-116, 48 h): 4820 ± 210 nM | IC50 ([2]; Homo sapiens, MCF7, 48 h): < 500 nM | IC50 [2]: 310 ± 20 nM

Cc1nc2sc3c(=N)n(N=Cc4ccc(Br)cc4)cnc3c2c(C)c1Br [Compound 9a, 8-Bromo-N-(4-bromobenzylidene)-4-imino-7,9-dimethylpyrido[3′,2′:4,5]thieno[3,2-d]pyrimidin-3(4H)-amine]
melting point: > 300 °C | inhibition at 25 µM ([1]; pim-1 kinase, 25 µM): 88% | IC50 ([1]; pim-1 kinase): 520 nM

O=C(O)c1ccc2c(c1)nc(Nc1cccc(Cl)c1)c1ccncc12 [CX-4595]
IC50 (pim-1; read-out: IC50 (pim-1)): 48 nM | IC50 (pim-2): 186 nM

Cc1nc2sc3c(c2c(C)c1Br)NC(c1ccc(F)cc1)NC3=O (centres unmarked) [Compound 3f, 8-Bromo-2-(4-fluorophenyl)-7,9-dimethyl-2,3-dihydropyrido[3′,2′:4,5]thieno[3,2-d]pyrimidin-4(1H)-one]
melting point: > 300 °C | inhibition at 25 µM ([1]; pim-1 kinase, 25 µM): 89% | IC50 ([1]; pim-1 kinase): 1000 nM

Cc1nc2sc3c(c2c(C)c1Br)NC(c1ccccc1O)NC3=O (centres unmarked) [Vb]
IC50 (pim-1; [4]): 1380 nM

Cc1nc2sc3c(ncn4nc(C(F)(F)F)nc34)c2c(C)c1Br [Compound 7b, 8-Bromo-7,9-dimethyl-2-(trifluoromethyl)pyrido[3′,2′:4,5]thieno[2,3-e][1,2,4]triazolo[1,5-c]pyrimidine]
melting point: 199 to 200 °C | inhibition at 25 µM ([1]; pim-1 kinase, 25 µM): 93% | IC50 ([1]; pim-1 kinase): 80 nM | IC50 [3]: 650 ± 40 nM | IC50 ([3]; Homo sapiens, HCT-116, 48 h): < 1000 nM | IC50 ([2]; Homo sapiens, MCF7, 48 h): 4620 ± 140 nM

COc1cc(C2NC(=O)c3sc4nc(C)c(Br)c(C)c4c3N2)cc(OC)c1OC (centres unmarked) [Compound 3i, 8-Bromo-7,9-dimethyl-2-(3,4,5-trimethoxyphenyl)-2,3-dihydropyrido[3′,2′:4,5]thieno[3,2-d]pyrimidin-4(1H)-one]
melting point: > 300 °C | inhibition at 25 µM ([1]; pim-1 kinase, 25 µM): 81% | IC50 ([1]; pim-1 kinase): 930 nM

CN[C@@H]1C[C@H]2O[C@@](C)([C@@H]1OC)n1c3ccccc3c3c4c(c5c6ccccc6n2c5c31)C(=O)NC4 [Staurosporine, reference compound]
inhibition at 25 µM [1]: 94%

Cc1nc2c3sc4nc(C)c(Br)c(C)c4c3ncn2n1 [Compound 7a, 8-Bromo-2,7,9-trimethylpyrido[3′,2′:4,5]thieno[2,3-e][1,2,4]triazolo[1,5-c]pyrimidine]
inhibition at 25 µM ([1]; pim-1 kinase, 25 µM): 76% | IC50 ([1]; pim-1 kinase): 1760 nM

Cc1nc2sc3c(c2c(C)c1Br)NC(c1ccc(Br)cc1)NC3=O (centres unmarked) [Compound 3b, 8-Bromo-2-(4-bromophenyl)-7,9-dimethyl-2,3-dihydropyrido[3′,2′:4,5]thieno[3,2-d]pyrimidin-4(1H)-one]
melting point: > 300 °C | inhibition at 25 µM ([1]; pim-1 kinase, 25 µM): 96% | IC50 ([1]; pim-1 kinase): 60 nM | IC50 ([3]; Homo sapiens, HCT-116, 48 h): 2740 ± 150 nM | IC50 ([2]; Homo sapiens, MCF7, 48 h): 1840 ± 120 nM

Cc1nc2sc3c(c2c(C)c1Br)NC(c1ccccc1C(F)(F)F)NC3=O (centres unmarked) [Vc]
IC50 (pim-1; [4]): 1970 nM

Cc1nc2sc3c(c2c(C)c1Br)NC(c1ccc(O)c(O)c1)NC3=O (centres unmarked) [Compound 3e, 8-Bromo-2-(3,4-dihydroxyphenyl)-7,9-dimethyl-2,3-dihydropyrido[3′,2′:4,5]thieno[3,2-d]pyrimidin-4(1H)-one]
inhibition at 25 µM ([1]; pim-1 kinase, 25 µM): 93% | IC50 ([1]; pim-1 kinase): 60 nM

COc1ccc(C2NC(=O)c3sc4nc(C)c(Br)c(C)c4c3N2)cc1 (centres unmarked) [Compound 3h, 8-Bromo-2-(4-methoxyphenyl)-7,9-dimethyl-2,3-dihydropyrido[3′,2′:4,5]thieno[3,2-d]pyrimidin-4(1H)-one]
melting point: > 300 °C | inhibition at 25 µM ([1]; pim-1 kinase, 25 µM): 84% | IC50 ([1]; pim-1 kinase): 1170 nM

Cc1nc2sc3c(c2c(C)c1Br)NC(c1ccccc1Cl)NC3=O (centres unmarked) [Va]
IC50 (pim-1; [4]): 1180 nM

Cc1nc2sc3c(c2c(C)c1Br)NC(c1ccc(Cl)cc1)NC3=O (centres unmarked) [Compound 3c, 8-Bromo-2-(4-chlorophenyl)-7,9-dimethyl-2,3-dihydropyrido[3′,2′:4,5]thieno[3,2-d]pyrimidin-4(1H)-one]
melting point: > 300 °C | inhibition at 25 µM ([1]; pim-1 kinase, 25 µM): 92% | IC50 ([1]; pim-1 kinase): 140 nM | IC50 ([2]; Homo sapiens, MCF7, 48 h): < 500 nM | IC50 [2]: 390 ± 70 nM

COc1cc(C2NC(=O)c3sc4nc(C)c(Br)c(C)c4c3N2)ccc1O (centres unmarked) [Compound 3g, 8-Bromo-2-(4-hydroxy-3-methoxyphenyl)-7,9-dimethyl-2,3-dihydropyrido[3′,2′:4,5]thieno[3,2-d]pyrimidin-4(1H)-one]
inhibition at 25 µM ([1]; pim-1 kinase, 25 µM): 92% | IC50 ([1]; pim-1 kinase): 80 nM | IC50 ([2]; Homo sapiens, MCF7, 48 h): < 500 nM | IC50 [2]: 460 ± 90 nM

Cc1nc2sc3c(c2c(C)c1Br)NC(c1ccc(OCc2ccccc2)cc1)NC3=O (centres unmarked) [Compound 3a, 2-(4-(Benzyloxy)phenyl)-8-bromo-7,9-dimethyl-2,3-dihydropyrido[3′,2′:4,5]thieno[3,2-d]pyrimidin-4(1H)-one]
melting point: 255 to 256 °C | inhibition at 25 µM ([1]; pim-1 kinase, 25 µM): 83% | IC50 ([1]; pim-1 kinase): 960 nM

Cc1nc2sc3c(c2c(C)c1Br)NC(c1ccc(O)cc1O)NC3=O (centres unmarked) [Compound 3d, 8-Bromo-2-(2,4-dihydroxyphenyl)-7,9-dimethyl-2,3-dihydropyrido[3′,2′:4,5]thieno[3,2-d]pyrimidin-4(1H)-one]
melting point: 290 to 291 °C | inhibition at 25 µM ([1]; pim-1 kinase, 25 µM): 81% | IC50 ([1]; pim-1 kinase): 1340 nM

Cc1nc2sc3c(ncn4ncnc34)c2c(C)c1Br [Compound 6, 8-bromo-7,9-dimethylpyrido[3′,2′:4,5]thieno[2,3-e][1,2,4]triazolo[1,5-c]pyrimidine]
melting point: 277 to 278 °C | inhibition at 25 µM ([1]; pim-1 kinase, 25 µM): 81% | IC50 ([1]; pim-1 kinase): 1080 nM
